Assay results from ChEMBL document CHEMBL4387763, “Discovery of novel biaryl sulfonamide based Mcl-1 inhibitors” (Bioorg Med Chem Lett, 2019).
Values after ≈ are worked out from the molar mass of the structure shown.

Molecular target: T1, Induced myeloid leukemia cell differentiation protein Mcl-1 (Homo sapiens, UniProt Q07820)
Experiment: Binding affinity to biotin-labelled TEV-fused GST-tagged MCl-1 (unknown origin) by surface plasmon resonance analysis
Conditions: not given

T1 sequence (Q07820 whole entry, the tested form may be a part): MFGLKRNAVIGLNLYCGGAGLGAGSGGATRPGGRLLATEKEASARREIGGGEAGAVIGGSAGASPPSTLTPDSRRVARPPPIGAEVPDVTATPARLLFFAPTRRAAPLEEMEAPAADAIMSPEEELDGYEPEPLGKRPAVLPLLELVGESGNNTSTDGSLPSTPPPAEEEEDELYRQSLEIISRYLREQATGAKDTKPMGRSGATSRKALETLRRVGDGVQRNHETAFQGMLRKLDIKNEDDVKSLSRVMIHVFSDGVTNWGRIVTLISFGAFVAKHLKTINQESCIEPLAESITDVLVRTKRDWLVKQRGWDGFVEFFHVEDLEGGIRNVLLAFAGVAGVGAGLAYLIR

Row | Kd | SMILES
1 | 165 nM | Cc1cc(C(=O)NC[C@@H](O)c2ccccc2)sc1S(=O)(=O)Nc1cc(C(F)(F)F)ccc1Cl

System: not listed separately
Experiment: Solubility of the compound
Format: physicochemical
Conditions: not given

Row | solubility | SMILES
2 | 100 µM (≈ 58.6 µg/mL) | Cc1cc(C(=O)N[C@H](Cc2c[nH]c3ccccc23)C(=O)O)sc1S(=O)(=O)Nc1cc(C(F)(F)F)ccc1Cl
3 | 100 µM (≈ 54.7 µg/mL) | Cc1cc(C(=O)N[C@H](Cc2ccccc2)C(=O)O)sc1S(=O)(=O)Nc1cc(C(F)(F)F)ccc1Cl

System: not listed separately
Experiment: Stability in human liver microsomes assessed as parent compound remaining after 30 mins
Format: ADME, Microsome
Conditions: read-out: Stability

Row | remaining at 0.5 h | SMILES
4 | 98% | Cc1cc(C(=O)N[C@H](Cc2c[nH]c3ccccc23)C(=O)O)sc1S(=O)(=O)Nc1cc(C(F)(F)F)ccc1Cl
5 | 99% | Cc1cc(C(=O)N[C@H](Cc2ccccc2)C(=O)NS(C)(=O)=O)sc1S(=O)(=O)Nc1cc(C(F)(F)F)ccc1Cl
6 | 66% | Cc1cc(C(=O)N[C@H](Cc2ccccc2)C(=O)O)sc1S(=O)(=O)Nc1cc(C(F)(F)F)ccc1Cl
7 | 74% | Cc1cc(C(=O)N[C@H](Cc2ccccc2)C(=O)NS(=O)(=O)c2ccccc2)sc1S(=O)(=O)Nc1cc(C(F)(F)F)ccc1Cl

Molecular target: T1, Induced myeloid leukemia cell differentiation protein Mcl-1
Experiment: Inhibition of […]-labelled BID binding to human MCl-1 (171 to 327 residues) expressed in Escherichia coli BL21 (DE3) by fluorescence polarization assay
Conditions: not given

Row | IC50 | SMILES
8 | 7100 nM | Cc1cc(C(=O)NC(Cc2ccccc2)Cc2ccccc2)sc1S(=O)(=O)Nc1cc(C(F)(F)F)ccc1Cl
9 | 153 nM | Cc1cc(C(=O)N[C@H](Cc2ccccc2)C(N)=O)sc1S(=O)(=O)Nc1cc(C(F)(F)F)ccc1Cl
10 | 13000 nM | O=S(=O)(Nc1cc(C(F)(F)F)ccc1Cl)c1ccccc1Cl
11 | 660 nM | Cc1cc(C(=O)N[C@@H](C(=O)O)C(C)C)sc1S(=O)(=O)Nc1cc(C(F)(F)F)ccc1Cl
12 | 112 nM | Cc1cc(C(=O)N[C@H](Cc2ccccc2)C(=O)NCCO)sc1S(=O)(=O)Nc1cc(C(F)(F)F)ccc1Cl
13 | 1070 nM | Cc1cc(C(=O)NS(C)(=O)=O)sc1S(=O)(=O)Nc1cc(C(F)(F)F)ccc1Cl
14 | 1000 nM | Cc1cc(C(=O)N2CCCC[C@H]2C(=O)O)sc1S(=O)(=O)Nc1cc(C(F)(F)F)ccc1Cl
15 | 145 nM | COC(=O)[C@@H](Cc1ccccc1)NC(=O)c1cc(C)c(S(=O)(=O)Nc2cc(C(F)(F)F)ccc2Cl)s1
16 | 1900 nM | COC(=O)c1cc(C)c(S(=O)(=O)Nc2cc(C(F)(F)F)ccc2Cl)s1
17 | 820 nM | Cc1cc(C(=O)N[C@H](CCc2ccccc2)C(=O)O)sc1S(=O)(=O)Nc1cc(C(F)(F)F)ccc1Cl
18 | 4200 nM | Cc1cc(C(=O)NC2CCc3ccccc3C2)sc1S(=O)(=O)Nc1cc(C(F)(F)F)ccc1Cl (stereo unspecified)
19 | > 25000 nM | O=S(=O)(Nc1cccc(C(F)(F)F)c1)c1cc(Cl)ccc1Cl
20 | 210 nM | Cc1cc(C(=O)N[C@H](Cc2c[nH]c3ccccc23)C(=O)O)sc1S(=O)(=O)Nc1cc(C(F)(F)F)ccc1Cl
21 | 18000 nM | CN(C)c1ccc(S(=O)(=O)N(C)C)cc1NS(=O)(=O)c1cc(Cl)ccc1Cl
22 | 2800 nM | Cc1cc(C(=O)N[C@H](Cc2ccc(-c3ccccc3)cc2)C(=O)O)sc1S(=O)(=O)Nc1cc(C(F)(F)F)ccc1Cl
23 | 300 nM | Cc1cc(C(=O)NC(Cc2ccccc2)C(=O)O)sc1S(=O)(=O)Nc1cc(C(F)(F)F)ccc1Cl (stereo unspecified)
24 | 7300 nM | O=S(=O)(Nc1cc(C(F)(F)F)ccc1Cl)c1c(Cl)cccc1Cl
25 | 310 nM | Cc1cc(C(=O)N[C@H](COCc2ccccc2)C(=O)O)sc1S(=O)(=O)Nc1cc(C(F)(F)F)ccc1Cl
26 | 9000 nM | O=S(=O)(Nc1cc(Cl)c(Cl)cc1Cl)c1cc(Cl)ccc1Cl
27 | 73 nM | Cc1cc(C(=O)N[C@H](Cc2ccccc2)C(=O)NS(C)(=O)=O)sc1S(=O)(=O)Nc1cc(C(F)(F)F)ccc1Cl
28 | > 25000 nM | CC(C)c1cccc(NS(=O)(=O)c2cc(Cl)ccc2Cl)c1
29 | 690 nM | Cc1cc(C(=O)N(CCc2ccccc2)CC(=O)O)sc1S(=O)(=O)Nc1cc(C(F)(F)F)ccc1Cl
30 | 8600 nM | O=S(=O)(Nc1cc(C(F)(F)F)ccc1Cl)c1sc(Cl)cc1Cl
31 | 12000 nM | Cc1ccc(S(=O)(=O)Nc2cc(C(F)(F)F)ccc2Cl)c(C)c1
32 | 19000 nM | O=C(Nn1cnnc1)c1cccc(S(=O)(=O)Nc2cc(C(F)(F)F)ccc2Cl)c1
33 | 420 nM | Cc1cc(C(=O)NCc2nnn[nH]2)sc1S(=O)(=O)Nc1cc(C(F)(F)F)ccc1Cl
34 | 20000 nM | Cc1ccc([N+](=O)[O-])cc1NS(=O)(=O)c1cc(Cl)ccc1Cl
35 | 630 nM | Cc1cc(C(=O)N2CCN(C(=O)OC(C)(C)C)C[C@H]2C(=O)O)sc1S(=O)(=O)Nc1cc(C(F)(F)F)ccc1Cl

Row | IC50 | SMILES
36 | 181 nM | Cc1cc(C(=O)N[C@H](Cc2ccccc2)C(=O)O)sc1S(=O)(=O)Nc1cc(C(F)(F)F)ccc1Cl
37 | > 25000 nM | O=S(=O)(Nc1ccn[nH]1)c1cc(Cl)ccc1Cl
38 | 920 nM | Cc1cc(C(=O)N[C@H](Cc2c[nH]cn2)C(=O)O)sc1S(=O)(=O)Nc1cc(C(F)(F)F)ccc1Cl
39 | 5500 nM | Cc1ccc(F)cc1S(=O)(=O)Nc1cc(C(F)(F)F)ccc1Cl
40 | 810 nM | Cc1cc(C(=O)NCCc2ccccc2)sc1S(=O)(=O)Nc1cc(C(F)(F)F)ccc1Cl
41 | 10000 nM | Cc1cc(F)ccc1S(=O)(=O)Nc1cc(C(F)(F)F)ccc1Cl
42 | 1500 nM | Cc1cc(C(=O)N[C@H](C)C(=O)O)sc1S(=O)(=O)Nc1cc(C(F)(F)F)ccc1Cl
43 | 21000 nM | O=S(=O)(Nc1ccc(Cl)cc1Cl)c1cc(Cl)ccc1Cl
44 | 7100 nM | Cc1cc(C(=O)NC(Cc2ccccc2)c2ccccc2)sc1S(=O)(=O)Nc1cc(C(F)(F)F)ccc1Cl (stereo unspecified)
45 | 380 nM | Cc1cc(C(=O)N[C@H](Cc2cccnc2)C(=O)O)sc1S(=O)(=O)Nc1cc(C(F)(F)F)ccc1Cl
46 | 17000 nM | Cn1ccnc1S(=O)(=O)Nc1cc(C(F)(F)F)ccc1Cl
47 | > 25000 nM | O=S(=O)(Nc1ccc2ccccc2c1)c1cc(Cl)ccc1Cl
48 | 149 to 3100 nM | O=S(=O)(Nc1cc(C(F)(F)F)ccc1Cl)c1cc(Cl)ccc1Cl
49 | 470 nM | Cc1cc(C(=O)NC[C@H](O)c2ccccc2)sc1S(=O)(=O)Nc1cc(C(F)(F)F)ccc1Cl
50 | 3500 nM | Cc1cc(C(=O)NCCC(=O)O)sc1S(=O)(=O)Nc1cc(C(F)(F)F)ccc1Cl
51 | > 25000 nM | O=S(=O)(Nc1ccccc1Cl)c1cc(Cl)ccc1Cl
52 | 11000 nM | Cc1ccccc1S(=O)(=O)Nc1cc(C(F)(F)F)ccc1Cl
53 | 1800 nM | Cc1cc2c(cc1S(=O)(=O)Nc1cc(C(F)(F)F)ccc1Cl)OCC(=O)N2
54 | 149 nM | Cc1cc(C(=O)NC[C@@H](O)c2ccccc2)sc1S(=O)(=O)Nc1cc(C(F)(F)F)ccc1Cl
55 | 11000 nM | O=S(=O)(Nc1cc(Cl)ccc1Cl)c1cc(Cl)ccc1Cl
56 | 750 nM | Cc1cc(C(=O)N[C@@H](Cc2ccccc2)C(=O)O)sc1S(=O)(=O)Nc1cc(C(F)(F)F)ccc1Cl
57 | 23000 nM | Cc1nn(C)c(Cl)c1S(=O)(=O)Nc1cc(C(F)(F)F)ccc1Cl
58 | 470 nM | Cc1cc(C(=O)NCC(=O)O)sc1S(=O)(=O)Nc1cc(C(F)(F)F)ccc1Cl
59 | 53 nM | Cc1cc(C(=O)N[C@H](Cc2ccccc2)C(=O)NS(=O)(=O)c2ccccc2)sc1S(=O)(=O)Nc1cc(C(F)(F)F)ccc1Cl
60 | 1500 nM | Cc1cc(C(=O)NC2(C(=O)O)CC2)sc1S(=O)(=O)Nc1cc(C(F)(F)F)ccc1Cl
61 | 153 nM | Cc1cc(C(=O)N[C@H](Cc2ccccc2)c2nnn[nH]2)sc1S(=O)(=O)Nc1cc(C(F)(F)F)ccc1Cl
62 | 7000 nM | Cc1cc(C(=O)NCCc2ccc(Oc3ccccc3)cc2)sc1S(=O)(=O)Nc1cc(C(F)(F)F)ccc1Cl

System: not listed separately
Experiment: Stability in mouse liver microsomes assessed as parent compound remaining after 30 mins
Format: ADME, Microsome
Conditions: read-out: Stability

Row | remaining at 0.5 h | SMILES
63 | 94% | Cc1cc(C(=O)N[C@H](Cc2c[nH]c3ccccc23)C(=O)O)sc1S(=O)(=O)Nc1cc(C(F)(F)F)ccc1Cl
64 | 91% | Cc1cc(C(=O)N[C@H](Cc2ccccc2)C(=O)NS(C)(=O)=O)sc1S(=O)(=O)Nc1cc(C(F)(F)F)ccc1Cl
65 | 95% | Cc1cc(C(=O)N[C@H](Cc2ccccc2)C(=O)O)sc1S(=O)(=O)Nc1cc(C(F)(F)F)ccc1Cl
66 | 81% | Cc1cc(C(=O)N[C@H](Cc2ccccc2)C(=O)NS(=O)(=O)c2ccccc2)sc1S(=O)(=O)Nc1cc(C(F)(F)F)ccc1Cl
